{"source": "patent US7385063B2", "about": "“Method for preparing imidazole derivatives” (Chugai Seiyaku Kabushiki Kaisha, priority 2001, dated 2008)", "data": [{"system": "human breast cancer cells", "assay": "not given", "settings": "breast carcinoma cells; Pizer et al.; cited from earlier work", "units": {"malonyl-CoA level, of the control": "%"}, "values": [{"smiles": "CCCCCCCCCCCCCCOc1ccc(C(=O)O)o1", "note": "[TOFA, 5-(tetradecyloxy)-2-furoic acid]", "malonyl-CoA level, of the control": 60}]}, {"system": "not given", "assay": "not given", "settings": "not given", "values": [{"smiles": "O=C(NCc1ccccc1)Nc1ccc(C(O)(C(F)(F)F)C(F)(F)F)cc1", "note": "[Example 3, N-benzyl-N′-{4-[2,2,2-trifluoro-1-hydroxy-1-(trifluoromethyl)ethyl]phenyl}urea]", "melting point": "163 to 164 °C (dec.)"}]}, {"target": "T1, malonyl-CoA decarboxylase prepared from rat heart (Rattus norvegicus, UniProt Q920F5)", "T1 construct": "malonyl-CoA decarboxylase prepared from rat heart; from tissue; host or cells: rat heart", "T1 sequence (Q920F5 39-492)": "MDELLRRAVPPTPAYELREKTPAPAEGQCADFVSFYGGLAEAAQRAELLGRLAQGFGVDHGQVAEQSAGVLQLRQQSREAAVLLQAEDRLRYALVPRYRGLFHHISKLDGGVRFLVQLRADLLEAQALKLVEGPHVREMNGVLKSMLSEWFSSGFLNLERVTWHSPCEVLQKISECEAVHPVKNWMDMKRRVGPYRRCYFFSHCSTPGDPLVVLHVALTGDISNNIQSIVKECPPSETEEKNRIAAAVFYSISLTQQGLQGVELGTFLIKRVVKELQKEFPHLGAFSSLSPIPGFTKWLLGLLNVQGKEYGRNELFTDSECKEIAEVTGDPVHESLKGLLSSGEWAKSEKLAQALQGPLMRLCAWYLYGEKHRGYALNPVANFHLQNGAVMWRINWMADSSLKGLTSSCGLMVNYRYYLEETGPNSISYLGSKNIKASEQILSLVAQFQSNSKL", "assay": "In vitro MCD inhibitory assay (spectrophotometric, 96 well)", "type": "biochemical", "settings": "concentration causing 50% inhibition of MCD activity, read-out: IC50 of the MCD inhibitors", "procedure": "The following reagents are added into a 96 well titer plate: Tris-HCl buffer, 20 μL; DTE, 10 μL; I-malate, 20 μL; NAD, 10 μL; NADH, 25 μL; water, 80 μL; malic dehydrogenase, 5 μL. The contents are mixed and incubated for 2 min followed by the addition of 5 μL of citrate synthase.", "units": {"IC50": "nM"}, "values": [{"smiles": "O=C(O)CCCCN(C(=O)c1ccncc1)c1ccc(C(O)(C(F)(F)F)C(F)(F)F)cc1", "note": "[Example 1-3]", "IC50": 7}, {"smiles": "O=S(=O)(Nc1ccc(C(O)(C(F)(F)F)C(F)(F)F)cc1)N1CCCCC1", "note": "[Example 2-5]", "IC50": 604}, {"smiles": "CCN(CCC#N)C(=O)N(CCCCC(=O)O)c1ccc(C(O)(C(F)(F)F)C(F)(F)F)cc1", "note": "[Example 4-94]", "IC50": 9}, {"smiles": "O=C(N1CCOCC1)N(CCCCc1nnn[nH]1)c1ccc(C(O)(C(F)(F)F)C(F)(F)F)cc1", "note": "[Example 4-114]", "IC50": 10}, {"smiles": "O=C(N1CCOCC1)N(CCCF)c1ccc(C(O)(C(F)(F)F)C(F)(F)F)cc1", "note": "[Example 4-130]", "IC50": 36}, {"smiles": "N#Cc1cccc(CS(=O)(=O)c2nccn2-c2ccc(C(O)(C(F)(F)F)C(F)(F)F)cc2)c1", "note": "[Example 6-1]", "IC50": 18}, {"smiles": "OC(c1ccc(-n2nc(-c3ccccn3)cc2-c2ccccn2)cc1)(C(F)(F)F)C(F)(F)F", "note": "[Example 8-4]", "IC50": 557}, {"smiles": "Cc1cc(-c2ccncc2)n(-c2ccc(C(O)(C(F)(F)F)C(F)(F)F)cc2)n1", "note": "[Example 8-28]", "IC50": 223}]}]}
